≈ marks a conversion by molar mass, not a printed value. Where two headings read alike, the source gives them in different places.
Legend:
[1] = tested on: SREBP pathway; experiment: SREBP luciferase reporter gene system (SRE-luciferase assay); assay type: cell-based, human; settings: Huh-7/SRE-luc cells, sterol-deficient medium, 0.01-10 µM
Outline: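 Readout was SRE-driven luciferase normalised to GFP fluorescence in lysates of stably transfected Huh-7/SRE-luc hepatoma cells. Compounds (0.01, 0.03, 0.1, 0.3, 1.0, 3.0, 10 µM; DMSO control) were applied for 16 h in sterol-depleted medium with 2 µM lovastatin and 10 µM mevalonate; IC50 from variable-slope fit.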

[2] = Metabolic stability experiment of mouse liver microsomes; assay type: in vitro ADME
Procedure: PB solution (100 mM), MgCl2 solution (300 mM), NADPH solution (2.04 mM), and mouse liver microsome (SHQY catalog number: M1000, batch number: 2110330) solution (1.00 mg/mL) were prepared respectively. […] Then, 100 µL of mouse liver microsome solution was added to a 96-well sample plate. For the 0 min sample, acetonitrile solution containing the internal standard was first added; then, 2 µL of 100 µM working solution was added; followed by the addition of 98 µL of pre-warmed 2.04 mM NADPH at 37°C. For the 5 min, 15 min, 30 min, 45 min, and 60 min samples, 2 µL of 100 µM working solution was first added; followed by the addition of 98 µL of pre-warmed 2.04 mM NADPH at 37°C to initiate the reaction; upon reaching the respective time points, a solution of acetonitrile containing the internal standard was added to terminate the reaction. For the NCF60 sample, 2 µL of 100 µM working solution was first added; followed by the addition of 98 µL of pre-warmed PB at 37°C to initiate the reaction; upon reaching the respective time points, a solution of acetonitrile containing the internal standard was added to terminate the reaction. During the experiment, all samples were incubated in a 37°C water bath. All samples were shaken on an oscillator at 800 rpm for 10 min, then centrifuged at 3200 g for 20 min. The supernatant was aspirated, diluted with deionized water at the corresponding ratio, and analyzed by LC-MS/MS. The remaining percentage of the compound at each time point was obtained by dividing the peak area ratio of the compound at 5, 15, 30, 45, and 60 min by the peak area ratio at 0 min. The half-life (T1/2) of the compound was then calculated using Excel. Table 2: Mouse liver microsome stability results of compounds from some examples

[3] = tested on: Fatty Acid Synthase (FASN) gene; experiment: Inhibition of FASN gene expression (qPCR) in Huh-7 cells; assay type: cell-based, human; settings: Huh-7 cells, starvation medium, 16 hours, qPCR, class symbols, read-out: FASN IC50
Outline: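 IC50 derived by four-parameter fit of FASN expression inhibition versus DMSO, measured by RT-qPCR. Compound exposure lasted 16 h at five 3-fold concentrations from 3000 nM, applied to Huh-7 cells in sterol-depleting medium with 5% LPDS, 2 µM lovastatin and 10 µM mevalonate.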

[4] = Solubility in fasted-state simulated intestinal fluid (FaSSIF); assay type: physicochemical; settings: FaSSIF, pH 6.5, fassif, kinetic from dmso stock, FaSSIF pH 6.5, 300 µM sample solution, room temperature
Procedure: Compound powder was dissolved in DMSO to prepare a 10.0 mM stock solution for later use. 0.021 g NaOH, 0.198 g NaH2PO4, and 0.309 g NaCl were weighed and added to 50.0 mL of ultrapure water. After thorough mixing, the pH was adjusted to 6.5 using HCl or NaOH. Then, 0.112 g of FaSSIF powder was added. After complete dissolution, the solution was allowed to stand at room temperature for 2 hours for later use. A certain volume of the compound stock solution was added to a certain volume of FaSSIF to prepare a 300 µM sample solution, which was mixed at room temperature under 1000 rpm for 1 hour. After 1 hour, the sample was centrifuged, and a certain volume of supernatant was taken. The termination solution was added to precipitate the sample, which was then thoroughly mixed and centrifuged for 20 minutes. The supernatant was then taken again, diluted with dilution solution, and then analyzed by liquid chromatography-tandem mass spectrometry (LC-MS/MS). The concentration of the test compound in the samples was quantitatively determined using LC-MS/MS. Table 3: FaSSIF solubility results of compounds from some examples

COc1cccc(F)c1C(O)CCC[C@@H](C)[C@H]1CC[C@H]2[C@@H]3CC[C@H]4[C@@H](O)[C@@H](O)CC[C@]4(C)[C@H]3CC[C@]12C (stereo partly drawn) [Compound 20, 24-[(2-Fluoro-6-methoxyphenyl)(hydroxy)methyl]-5α-cholane-3β,4β-diol]
IC50 ([1]; Homo sapiens, Huh-7, 16 h): 0.23 µM | half-life at 1 µM [2]: 0.498 h

COc1cc(F)ccc1C(O)CCC[C@@H](C)[C@H]1CC[C@H]2C3=C(F)C[C@H]4[C@@H](O)[C@@H](O)CC[C@]4(C)[C@H]3CC[C@]12C (stereo partly drawn) [Compound 36, (1R,3aR,5aR,6R,7S,9aR,9bR,11aR)-4-fluoro-1-[(2R)-6-(4-fluoro-2-methoxyphenyl)-6-hydroxyhexan-2-yl]-9a,11a-dimethyl-2,3,3a,5,5a,6,7,8,9,9a,9b,10,11,11a-tetradecahydro-1H-cyclopenta[1,2-a]phenanthrene-6,7-diol]
IC50 ([1]; Homo sapiens, Huh-7, 16 h): 0.2 µM | half-life at 1 µM [2]: > 3.1 h

C[C@H](CCCC(O)c1ccccc1OC(F)(F)F)[C@H]1CC[C@H]2[C@H]3[C@H](CC[C@]12C)[C@@]1(C)CC[C@H](O)C(=O)[C@@H]1CC3(F)F (stereo partly drawn) [Compound 97, (1R,3aS,3bS,5aR,7S,9aR,9bS,11aR)-4,4-difluoro-7-hydroxy-1-[(2R)-6-hydroxy-6-{2-[(trifluoromethyl)oxy]phenyl}hexan-2-yl]-9a,11a-dimethylhexadecahydro-1H-cyclopenta[1,2-a]phenanthren-6-one]
IC50 ([1]; Homo sapiens, Huh-7, 16 h): 0.0741 µM | half-life at 1 µM [2]: 1.78 h | IC50 ([3]; Homo sapiens, Huh-7, 16 h): < 200 nM

C[C@H](CCCC(O)c1cccc(OC(F)(F)F)c1)[C@H]1CC[C@H]2[C@H]3[C@H](CC[C@]12C)[C@@]1(C)CC[C@H](O)[C@H](O)[C@@H]1CC3(F)F (stereo partly drawn) [Compound 84, (1R,3aS,3bS,5aR,6R,7S,9aR,9bS,11aR)-4,4-difluoro-1-[(2R)-6-hydroxy-6-{3-[(trifluoromethyl)oxy]phenyl}hexan-2-yl]-9a,11a-dimethylhexadecahydro-1H-cyclopenta[1,2-a]phenanthrene-6,7-diol]
IC50 ([1]; Homo sapiens, Huh-7, 16 h): 0.204 µM | half-life at 1 µM [2]: > 3.08 h | IC50 ([3]; Homo sapiens, Huh-7, 16 h): 200 to 500 nM

COc1nccc(F)c1C(O)CCC[C@@H](C)[C@H]1CC[C@H]2[C@H]3[C@H](CC[C@]12C)[C@@]1(C)CC[C@H](O)[C@H](O)[C@@H]1CC3(F)F (stereo partly drawn) [Compound 126, (1R,3aS,3bS,5aR,6R,7S,9aR,9bS,11aR)-4,4-difluoro-1-[(2R)-6-(4-fluoro-2-methoxypyridin-3-yl)-6-hydroxyhexan-2-yl]-9a,11a-dimethylhexadecahydro-1H-cyclopenta[1,2-a]phenanthrene-6,7-diol]
IC50 ([1]; Homo sapiens, Huh-7, 16 h): 0.153 µM | half-life at 1 µM [2]: 1.79 h

C[C@H](CCCC(O)c1ccccc1F)[C@H]1CC[C@H]2[C@H]3[C@H](CC[C@]12C)[C@@]1(C)CC[C@H](O)C(=O)[C@@H]1CC3(F)F (stereo partly drawn) [Compound 11, (1R,3aS,3bS,5aR,7S,9aR,9bS,11aR)-4,4-difluoro-1-[(2R)-6-(2-fluorophenyl)-6-hydroxyhexan-2-yl]-7-hydroxy-9a,11a-dimethylhexadecahydro-1H-cyclopenta[1,2-a]phenanthren-6-one]
IC50 ([1]; Homo sapiens, Huh-7, 16 h): 0.19 µM | half-life at 1 µM [2]: 0.819 h | IC50 ([3]; Homo sapiens, Huh-7, 16 h): 200 to 500 nM

COc1cccc([C@@H](O)CCC[C@@H](C)[C@H]2CC[C@H]3[C@H]4[C@H](CC[C@]23C)[C@@]2(C)CC[C@H](O)[C@H](O)[C@@H]2CC4(F)F)c1OC [Compound 70, (1R,3aS,3bS,5aR,6R,7S,9aR,9bS,11aR)-1-[(2R,6S)-6-(2,3-dimethoxyphenyl)-6-hydroxyhexan-2-yl]-4,4-difluoro-9a,11a-dimethylhexadecahydro-1H-cyclopenta[1,2-a]phenanthrene-6,7-diol]
IC50 ([1]; Homo sapiens, Huh-7, 16 h): 0.211 µM | half-life at 1 µM [2]: 0.581 h | IC50 ([3]; Homo sapiens, Huh-7, 16 h): < 200 nM

C[C@H](CCCC(O)c1c(F)cccc1F)[C@H]1CC[C@H]2[C@H]3[C@H](CC[C@]12C)[C@@]1(C)CC[C@H](O)CC1CC3(F)F (stereo in doubt) [Compound 87, (1R,3aS,3bR,7S,9aS,9bS,11aR)-1-[(2R)-6-(2,6-difluorophenyl)-6-hydroxyhexan-2-yl]-4,4-difluoro-9a,11a-dimethylhexadecahydro-1H-cyclopenta[1,2-a]phenanthren-7-ol]
IC50 ([1]; Homo sapiens, Huh-7, 16 h): 0.055 µM | half-life at 1 µM [2]: 2.26 h | IC50 ([3]; Homo sapiens, Huh-7, 16 h): < 200 nM

COc1nc(F)ccc1[C@H](O)CC[C@@H](C)[C@H]1CC[C@H]2[C@H]3[C@H](CC[C@]12C)[C@@]1(C)CC[C@H](O)[C@H](O)[C@@H]1CC3(F)F [Compound 338, (1R,3aS,3bS,5aR,6R,7S,9aR,9bS,11aR)-4,4-difluoro-1-[(2R,5R)-5-(6-fluoro-2-methoxypyridin-3-yl)-5-hydroxypentan-2-yl]-9a,11a-dimethylhexadecahydro-1H-cyclopenta[1,2-a]phenanthrene-6,7-diol]
IC50 ([1]; Homo sapiens, Huh-7, 16 h): 0.143 µM | solubility at 1 h [4]: 34.7 µM (≈ 18.7 µg/mL) | IC50 ([3]; Homo sapiens, Huh-7, 16 h): < 200 nM

C[C@H](CCCC(O)c1cccc2c1OC(F)(F)O2)[C@H]1CC[C@H]2[C@H]3[C@H](CC[C@]12C)[C@@]1(C)CC[C@H](O)[C@H](O)[C@@H]1CC3(F)F (stereo partly drawn) [Compound 77, (1R,3aS,3bS,5aR,6R,7S,9aR,9bS,11aR)-1-[(2R)-6-(2,2-difluorobenzo[d][1,3]dioxol-4-yl)-6-hydroxyhexan-2-yl]-4,4-difluoro-9a,11a-dimethylhexadecahydro-1H-cyclopenta[1,2-a]phenanthrene-6,7-diol]
IC50 ([1]; Homo sapiens, Huh-7, 16 h): 0.17 µM | half-life at 1 µM [2]: > 3.08 h | IC50 ([3]; Homo sapiens, Huh-7, 16 h): < 200 nM

COc1cc(F)nc(F)c1[C@@H](O)CCC[C@@H](C)[C@H]1CC[C@H]2[C@H]3[C@H](CC[C@]12C)[C@@]1(C)CC[C@H](O)[C@H](O)[C@@H]1CC3(F)F (single isomer, unassigned) [Compound 234]
IC50 ([1]; Homo sapiens, Huh-7, 16 h): 0.029 µM | solubility at 1 h [4]: 49.3 µM (≈ 28.2 µg/mL) | IC50 ([3]; Homo sapiens, Huh-7, 16 h): < 200 nM

C[C@H](CCC1CC(N)C1)[C@H]1CC[C@H]2[C@@H]3CC[C@H]4C[C@@H](O)CC[C@]4(C)[C@H]3CC[C@]12C (stereo partly drawn) [Compound 136, (20R)-20-[2-(3-aminocyclobutyl)ethyl]-5α-pregnan-3β-ol]
half-life at 1 µM [2]: 1.6 h

C[C@H](CCCC(O)c1cccc2c1nnn2C)[C@H]1CC[C@H]2[C@H]3[C@H](CC[C@]12C)[C@@]1(C)CC[C@H](O)[C@H](O)[C@@H]1CC3(F)F (stereo partly drawn) [Compound 272, (1R,3aS,3bS,5aR,6R,7 S,9aR,9bS,11aR)-4,4-Difluoro-1-[(2R)-6-hydroxy-6-(1-methylbenzo[d][1,2,3]triazol-4-yl)hexan-2-yl]-9a,11a-dimethylhexadecahyd ro-1H-cyclopenta[1,2-a]phenanthrene-6,7-diol]
IC50 ([1]; Homo sapiens, Huh-7, 16 h): 0.116 µM | solubility at 1 h [4]: 225 µM (≈ 126 µg/mL) | IC50 ([3]; Homo sapiens, Huh-7, 16 h): < 200 nM

C[C@H](CCCC(O)c1cccc2c1OC(F)(F)O2)[C@H]1CC[C@H]2[C@H]3[C@H](CC[C@]12C)[C@@]1(C)CC[C@H](O)[C@H](O)[C@@H]1CC3(F)F (single isomer, unassigned) [Compound 195, (1R,3aS,3bS,5aR,6R,7S,9aR,9bS,11aR)-1-[(2R,6R)-6-(2,2-difluorobenzo[d][1,3]dioxol-4-yl)-6-hydroxyhexan-2-yl]-4,4-difluoro-9a,11a-dimethylhexadecahydro-1H-cyclopenta[1,2-a]phenanthrene-6,7-diol or (1R,3aS,3bS,5aR,6R,7S,9aR,9bS,11aR)-1-[(2R,6S)-6-(2,2-difluorobenzo[d][1,3]dioxol-4-yl)-6-hydroxyhexan-2-yl]-4,4-difluoro-9a,11a-dimethylhexadecahydro-1H-cyclopenta[1,2-a]phenanthrene-6,7-diol]
IC50 ([1]; 16 hours): 0.067 µM | solubility at 1 h [4]: 244 µM (≈ 143 µg/mL) | IC50 [3]: < 200 nM

Source: patent EP4752152A1, “STEROID COMPOUND, AND PREPARATION METHOD THEREFOR AND USE THEREOF” (Cholesgen (Shanghai) Co.Ltd., priority 2023, dated 2025)
